ChEMBL document CHEMBL5096184, “Structure activity relationship in β-carboline derived anti-malarial agents” (Eur J Med Chem, 2021)
≈ marks a conversion by molar mass, not a printed value. Where “and” joins values, the source holds several entries; their conditions need not be identical. Identical values can stand only once. One block for each molecule: values may come before it.

Columns and labels:
Plasmodium falciparum [1] = test: Antimalarial activity against Plasmodium falciparum NF54 assessed as delayed-death phenotype incubated 72 to 96 hrs by SYBR green staining method; format: functional, organism-based
Plasmodium falciparum [2] = test: Antimalarial activity against Plasmodium falciparum K1; format: functional, organism-based
Leishmania donovani = test: Antileishmanial activity against Leishmania donovani MHOM-ET-67/L82; format: functional, organism-based
Trypanosoma brucei = test: Antitrypanosomal activity against Trypanosoma brucei rhodesiense STIB 900; format: functional, organism-based
Trypanosoma cruzi = test: Antitrypanosomal activity against Trypanosoma cruzi Tulahuen C2C4; format: functional, organism-based
[3] = Cytotoxicity against rat L6 cells assessed as reduction in cell viability; format: toxicity, cell-based
[4] = Selectivity index, ratio of IC50 for rat L6 cells to IC50 for Plasmodium falciparum K1; format: toxicity; conditions: L6 cells versus Plasmodium falciparum K1, read-out: Ratio IC50
Plasmodium falciparum [5] = test: Antimalarial activity against Plasmodium falciparum incubated for 72 hrs by SYBR green I-based assay; format: functional, organism-based
Plasmodium falciparum [6] = test: Antiplasmodial activity against chloroquine sensitive Plasmodium falciparum K1; format: functional, organism-based
Plasmodium falciparum [7] = test: Antimalarial activity against chloroquine sensitive Plasmodium falciparum FcM29-Cameroon in human RBC; format: functional, organism-based; conditions: Erythrocyte
Plasmodium falciparum [8] = test: Antimalarial activity against Plasmodium falciparum; format: functional, organism-based
Plasmodium falciparum [9] = test: Antiplasmodial activity against chloroquine sensitive Plasmodium falciparum FCCI-HN assessed as decrease in parasitemia level incubated for 24 hrs by Giemsa staining method; format: functional, organism-based
Plasmodium = test: Antimalarial activity against Plasmodium; format: functional, organism-based
Plasmodium falciparum [10] = test: Antimalarial activity against Plasmodium falciparum D6; format: functional, organism-based
Plasmodium falciparum [11] = test: Antimalarial activity against Plasmodium falciparum W2; format: functional, organism-based

Structure (SMILES): O=C(O)C1Cc2c([nH]c3ccccc23)C(c2ccc(Cl)cc2Cl)N1 (stereo not drawn)
- IC50 (Plasmodium falciparum [1]): 210 µM

- IC50 (Plasmodium falciparum [2]): 0.481 µM
- IC50 (Leishmania donovani): 17.7 µM
- IC50 (Trypanosoma brucei): 4.1 µM
- IC50 (Trypanosoma cruzi): 7.5 µM
Structure (SMILES): Brc1ccc2[nH]c3c[n+](Cc4cccc5ccccc45)ccc3c2c1
- IC50 [3]: 5.1 µM
- selectivity ratio [4]: 11

- EC50 (Plasmodium falciparum [5]): > 50 µM
Structure (SMILES): COC(=O)[C@@H]1[C@H]2C[C@H]3c4[nH]c5ccccc5c4CCN3C[C@@H]2CC[C@@H]1O [YOHIMBINE]

- IC50 (Plasmodium falciparum [2]): 0.502 µM
- IC50 (Leishmania donovani): 46.4 µM
- IC50 (Trypanosoma brucei): 4.4 µM
- IC50 (Trypanosoma cruzi): 7.9 µM
Structure (SMILES): Brc1cccc2c1[nH]c1c[n+](Cc3cccc4ccccc34)ccc12
- IC50 [3]: 3.7 µM
- selectivity ratio [4]: 7

Structure (SMILES): O=c1c(O[C@@H]2OC[C@](O)(CO[C@@H]3O[C@H](CO)[C@@H](O)[C@H](O)[C@H]3O)[C@H](O)[C@H]2O)cc2nccc3c4ccccc4n1c23
- IC50 (Plasmodium falciparum [6]): 25 µM

Structure (SMILES): COC(=O)C1=CO[C@@H](C)[C@@H]2CN3CCc4c([nH]c5ccc(OC)cc45)[C@@H]3C[C@H]12 [ARICINE]
- IC50 (Plasmodium falciparum [7]): 0.3 µg/mL and 690 nM

Structure (SMILES): CC1(C)Cc2c([nH]c3ccccc23)C2(N1)C(=O)Nc1ccc(Cl)cc12 (racemic)
- IC50 (Plasmodium falciparum [8]): 0.0027 µM

Structure (SMILES): C/C=C1/COC(=O)c2c1cc1n(c2=O)CCc2c-1[nH]c1c(O[C@@H]3O[C@H](CO)[C@@H](O)[C@H](O)[C@H]3O)cccc21
- IC50 (Plasmodium falciparum [9]): 42.1 µM

Structure (SMILES): Oc1cccc2c1[nH]c1c(C3=C[C@@]4(O)CC/C=C\CCCCN5CC[C@@H]3[C@]3(C[C@@H]6/C=C\CCCCN6[C@H]34)C5)nccc12
- IC50 (Plasmodium): 6.1 ng/mL (≈ 0.0108 µM)
- IC50 (Plasmodium falciparum [10]): 6 ng/mL (≈ 0.0106 µM)
- IC50 (Plasmodium falciparum [11]): 8 ng/mL (≈ 0.0142 µM)

Structure (SMILES): CC(=O)OC1=CO[C@@H](O[C@@H]2O[C@H](CO)[C@@H](O)[C@H](O)[C@H]2O)[C@H]2[C@@H]1C[C@@]13O[C@@H]2CN1CCC1c2ccccc2NC13 (stereo partly drawn)
- IC50 (Plasmodium falciparum [6]): 6.77 µM

Structure (SMILES): C/C=C(/CO[C@@H]1O[C@H](CO)[C@@H](O)[C@H](O)[C@H]1O)c1cc2n(c(=O)c1CO)CCc1c-2[nH]c2ccccc12
- IC50 (Plasmodium falciparum [9]): 9.7 µM
